# From patent US9643984B2, “Method for the preparation of [1,2,4]-triazolo[4,3-a]pyridines” (AMGEN, INC., priority 2013, dated 2017)
# Assay: solid-form stability of Compound A (humidity, temperature, air)
# Type: physicochemical
Structure (SMILES),"temperature up to which the monohydrate form is stable and robust (monohydrate form, solid)","stability to air, moisture and elevated temperature (isolated as salt form (e.g., HCl salt) or monohydrate form)",relative humidity at which the monohydrate crystalline solid reversibly dehydrates (monohydrate crystalline solid isolated in Example 8)
COCCOc1cnc2ccn([C@H](C)c3nnc4c(F)cc(-c5cnn(C)c5)cn34)c(=O)c2c1 [monohydrate form of Compound A],up to 50 °C,–,–
"COCCOc1cnc2ccn([C@H](C)c3nnc4c(F)cc(-c5cnn(C)c5)cn34)c(=O)c2c1 [Compound A, (R)-6-(1-(8-fluoro-6-(1-methyl-1H-pyrazol-4-yl)-[1,2,4]triazolo[4,3-a]pyridin-3-yl)ethyl)-3-(2-methoxyethoxy)-1,6-naphthyridin-5(6H)-one]",–,"stable to air, moisture, and elevated temperature",< 11 % RH
